Consider 36 molecules from patent US9028855B2, “Plant additives and uses thereof to modulate the synthesis of membrane glycerolipids in planta” (Commissariat a l'Energie Atomique et aux Energies …, priority 2009, dated 2015).

One assay relates to A. thaliana. The assay is described as follows: Root growth (primary root) of plants on high phosphate medium supplied with compound. Type of assay: in vivo. To be noted: for Root Growth: expressed as a percentage having regard to a control, +P control 100, −P 20; for primary root growth (in words): high phosphate medium supplied with compound. The text has this: In response to phosphate starvation, the primary root growth is inhibited (Svistoonoff et al., 2007).

In the next assay the test system is wild type seedlings. In words: Anthocyanins content (spectrophotometric). The class given is in vivo, A. thaliana. Set-up: key to Antho: anthocyanin content as A530 - 2.2*A652. As to conditions: accumulation of anthocyanes; +P control 46, −P 1008. The method, then: Anthocyanins were extracted with propanol:HCl:H2O (81:1:18) for 5 min at room temperature and 3 min at 100° C. Samples are centrifuged for 10 min at 4° C. Supernatants were collected and absorption measured at 530 nm and […]. Anthocyanin content was calculated as A530-2.2A652 (Lange et al., 1971).

Assay [1] has as its system phosphate transporter PHT1;4. The assay is described as follows: 8′G::GUS, follow-up of the expression of the phosphate transporter PHT1;4 (GUS staining). The class given is in vivo, A. thaliana. As to conditions: compound added to the cultivation medium. The text has this:
8′G cell line was obtained as follows: for the PHT1;4 promoter fusion, a 2 kb region upstream of the ORF of PHT1;4 was cloned in the vector pENTR/D-TOPO (pENTRT™/D-TOPO® Cloning Kit, ref. K2400-20, Invitrogen) and transferred to pKGWFS7 (Karimi et al., 2002) by recombination using Gateway BP (Gateway® BP Clonase® enzyme mix, ref. 11789-013, Invitrogen) and LR Clonase enzyme mixes (LR Clonase® II Plus enzyme, ref. 12538-120, Invitrogen), respectively, to produce the pPHT1;4:GUS-GFP gene fusion. This fusion was then introduced into the Arabidopsis genome via the Agrobacterium-mediated transformation system (Logemann et al., 2006).
Plants were examined for GUS activity by dipping the samples in a GUS staining solution (50 mM sodium phosphate buffer pH 7.0; 0.01% Triton X-100, 1 mM K3Fe(CN)6, 1 mM K4Fe(CN)6, 1 mg/ml 5-dromo-4-chloro-3-indolyl (3-D-GLUCURONIDE (X-Gluc A) and incubated at 37° C. over-night. After staining, the plants were fixed 2 hours in 50 mM sodium phosphate buffer pH 7.0; 1% glutaraldehyde; 4% formaldehyde.

“Also recorded” adds a separate entry of the source.

Take `CSc1ccc(NC=C2C(=O)CC(C)(C)CC2=O)cc1` [#35]: the “Root Growth” value in the assay on A. thaliana was 60 % of control. The molecule also returned an Antho in the assay with wild type seedlings of 208.
With `CC1(C)CC(=O)C(=CNc2ncc(C(F)(F)F)cc2Cl)C(=O)C1` [#20], in the assay on A. thaliana, the “Root Growth” value was 72 % of control and the “primary root growth (in words)” value is listed as “without altering the root growth; also recorded: do not induce a reduction of the root growth”. Besides, the “PHT1;4 expression (in words, summary of analogues)” value in assay [1] is “induced PHT 1;4 expression; also recorded: induce expression of the Pht1;4 gene”. In the assay with wild type seedlings, this molecule showed an Antho of 142.
For the molecule `Cc1ccc(NC=C2C(=O)CC(C)(C)CC2=O)cc1` [#1], in the assay on A. thaliana, the “Root Growth” value is 64 % of control and the “primary root growth (in words)” value is given as “without altering the root growth”. Besides, the “PHT1;4 expression (in words, summary of analogues)” value in assay [1] is recorded as “induced PHT 1;4 expression”. In the assay on wild type seedlings, this molecule returned an Antho of 274.
The corresponding values for `CC1(C)CC(=O)C(=CNc2ccc(Br)cc2)C(=O)C1` [#27] are 98 % of control, “without altering the root growth; also recorded: do not induce a reduction of the root growth”, “induced PHT 1;4 expression; also recorded: induce expression of the Pht1;4 gene” and 43.
Take `CC1(C)CC(=O)C(=CNc2ccc(O)cc2)C(=O)C1` [#38]: the “Root Growth” value in the assay with A. thaliana is given as 60 % of control. Moreover, in the assay on wild type seedlings, the Antho amounted to 206.
Taken in the same sequence, the figures for `CC1(C)CC(=O)C(=CNc2ccc(Br)cc2)C(=O)C1` [#2] were 59 % of control and 258.
Regarding `CC1(C)CC(=O)C(=CNc2cccc([N+](=O)[O-])c2)C(=O)C1` [#24], the “Root Growth” value with A. thaliana is given as 54 % of control. Further, the Antho with wild type seedlings was determined as 240.
In the case of `COc1cccc(NC=C2C(=O)CC(C)(C)CC2=O)c1` [#47], in the assay on A. thaliana, the “Root Growth” value is given as 70 % of control and the “primary root growth (in words)” value is on record as “without altering the root growth; also recorded: do not induce a reduction of the root growth”. Besides, in assay [1], the “PHT1;4 expression (in words, summary of analogues)” value is “induced PHT 1;4 expression; also recorded: induce expression of the Pht1;4 gene”. For the same molecule, the Antho in the assay on wild type seedlings worked out at 324.
Consider `Cc1cccc(CN/C=C2/C(=O)Nc3ccccc32)n1` [#18], for which the “Root Growth” value in the assay on A. thaliana is on record as 88 % of control. This molecule also came in with an Antho in the assay with wild type seedlings of 195.
For the molecule `CC1(C)CC(=O)C(=CNCc2ccccn2)C(=O)C1` [#11], in the assay on A. thaliana, the “Root Growth” value is 63 % of control and the “primary root growth (in words)” value is given as “without altering the root growth”. Further, the “PHT1;4 expression (in words, summary of analogues)” value in assay [1] is reported as “induced PHT 1;4 expression”. For the same molecule, the Antho in the assay with wild type seedlings worked out at 163.
Take `Cc1ccc(NC=C2C(=O)CC(C)(C)CC2=O)nc1` [#19]: in the assay on A. thaliana, the “Root Growth” value was 47 % of control. The same molecule returned an Antho in the assay on wild type seedlings of 193.
As to `Cc1c(Cl)cccc1NC=C1C(=O)CC(C)(C)CC1=O` [#12], in the assay with A. thaliana, the “Root Growth” value is on record as 57 % of control. In the assay with wild type seedlings, this molecule displayed an Antho of 850.
As to `CC(=O)c1ccc(NC=C2C(=O)CC(C)(C)CC2=O)cc1` [#34], in the assay on A. thaliana, the “Root Growth” value was 59 % of control. For the same molecule, in the assay with wild type seedlings, the Antho is on record as 289.
The corresponding values for `CC1(C)CC(=O)C(=CNc2ccc(I)cc2)C(=O)C1` [#8] are 56 % of control and 37.
`CC1(C)CC(=O)C(=CNc2cccnc2)C(=O)C1` [#16]: in the assay with A. thaliana, the “Root Growth” value is 40 % of control. Further, the Antho in the assay with wild type seedlings amounted to 431.
Taken in the same sequence, the figures for `Cc1ccnc(NS(=O)(=O)c2ccc(NC=C3C(=O)CC(C)(C)CC3=O)cc2)n1` [#26] were 6 % of control and 640.
Taken in the same sequence, the figures for `CC1(C)CC(=O)C(=CNc2ccccc2C(N)=O)C(=O)C1` [#39] were 60 % of control and 183.
Taken in the same sequence, the figures for `CC(=NO)c1ccc(NC=C2C(=O)CC(C)(C)CC2=O)cc1` [#25] were 63 % of control and 405.
In the case of `CC1(C)CC(=O)C(=CNc2cc(Cl)cc(Cl)c2)C(=O)C1` [#4], the “Root Growth” value with A. thaliana is 50 % of control. Further, the Antho with wild type seedlings worked out at 210.
As for `O=C1CC(c2ccccc2)CC(=O)C1=CNCc1ccccn1` (centres unmarked) [#17], the “Root Growth” value in the assay on A. thaliana is recorded as 60 % of control. This molecule also registered an Antho in the assay with wild type seedlings of 408.
The corresponding values for `CCC1CC(=O)C(=CNc2cc(F)cc(F)c2)C(=O)C1` (centres unmarked) [#32] are 13 % of control and 103.
For the molecule `COc1ccc(NC=C2C(=O)CC(C)(C)CC2=O)cc1OC` [#37], in the assay on A. thaliana, the “Root Growth” value is 69 % of control and the “primary root growth (in words)” value was “do not induce a reduction of the root growth”. Further, the “PHT1;4 expression (in words, summary of analogues)” value in assay [1] is “induce expression of the Pht1;4 gene”. In the assay with wild type seedlings, this molecule registered an Antho of 204.
The corresponding values for `O=C1CCCC(=O)C1=CNc1ccc(Cl)c(Cl)c1` [#43] are 67 % of control, “without altering the root growth; also recorded: do not induce a reduction of the root growth”, “induced PHT 1;4 expression; also recorded: induce expression of the Pht1;4 gene” and 186.
Take `Cc1ccc(NC=C2C(=O)CC(C)(C)CC2=O)cc1Cl` [#6]: the “Root Growth” value in the assay on A. thaliana is recorded as 53 % of control.
Turning to `O=C1CCCC(=O)C1=CNc1ccc(Cl)cc1Cl` [#44], in the assay with A. thaliana, the “Root Growth” value is listed as 68 % of control and the “primary root growth (in words)” value is recorded as “without altering the root growth; also recorded: do not induce a reduction of the root growth”. For the same molecule, the “PHT1;4 expression (in words, summary of analogues)” value in assay [1] is recorded as “induced PHT 1;4 expression; also recorded: induce expression of the Pht1;4 gene”. The same molecule registered an Antho in the assay with wild type seedlings of 123.
On to `O=C1CCCC(=O)C1=CNc1cc(Cl)cc(Cl)c1` [#33], for which, in the assay with A. thaliana, the “Root Growth” value is on record as 59 % of control. In the assay on wild type seedlings, this molecule registered an Antho of 167.
The corresponding values for `CC1(C)CC(=O)C(=CNc2cccc(Cl)c2)C(=O)C1` [#10] are 41 % of control and 225.
Consider `CC1(C)CC(=O)C(=CNc2ccncc2)C(=O)C1` [#13], for which the “Root Growth” value in the assay with A. thaliana is recorded as 42 % of control. The Antho in the assay on wild type seedlings came out at 513.
Turning to `Cc1cccc(NC=C2C(=O)CC(C)(C)CC2=O)c1` [#7], in the assay with A. thaliana, the “Root Growth” value is recorded as 75 % of control and the “primary root growth (in words)” value is “without altering the root growth”. Also, the “PHT1;4 expression (in words, summary of analogues)” value in assay [1] is recorded as “induced PHT 1;4 expression”. Further, the Antho in the assay on wild type seedlings is listed as 172.
Regarding `CC1(C)CC(=O)C(=CNc2ccc(F)cc2)C(=O)C1` [#5], in the assay on A. thaliana, the “Root Growth” value was 73 % of control and the “primary root growth (in words)” value is “without altering the root growth; also recorded: do not induce a reduction of the root growth”. Moreover, the “PHT1;4 expression (in words, summary of analogues)” value in assay [1] is on record as “induced PHT 1;4 expression; also recorded: induce expression of the Pht1;4 gene”. For the same molecule, the Antho with wild type seedlings turned out to be 110.
Consider `Cc1ccc(NC=C2C(=O)CC(C)(C)CC2=O)c(C)c1` [#9], for which, in the assay with A. thaliana, the “Root Growth” value is 71 % of control. Further, in the assay on wild type seedlings, the Antho came out at 130.
Turning to `CC1(C)CC(=O)C(=CNc2ccc(S(C)(=O)=O)cc2)C(=O)C1` [#36], the “Root Growth” value with A. thaliana is 58 % of control. The same molecule yielded an Antho with wild type seedlings of 235.
As to `CC1(C)CC(=O)C(=CNc2ccccn2)C(=O)C1` [#15], in the assay on A. thaliana, the “Root Growth” value is reported as 40 % of control. In the assay on wild type seedlings, this molecule came in with an Antho of 283.
On to `CC1(C)CC(=O)C(=CNc2ccc(F)c(F)c2)C(=O)C1` [#14], for which, in the assay with A. thaliana, the “Root Growth” value was 61 % of control and the “primary root growth (in words)” value is on record as “without altering the root growth”. In addition, the “PHT1;4 expression (in words, summary of analogues)” value in assay [1] is “induced PHT 1;4 expression”. Also, the Antho in the assay on wild type seedlings is 150.
For the molecule `O=C1CC(c2ccccc2)CC(=O)C1=CNc1ccccc1` (centres unmarked) [#28], in the assay on A. thaliana, the “Root Growth” value was 100 % of control and the “primary root growth (in words)” value is listed as “do not induce a reduction of the root growth”. In addition, in assay [1], the “PHT1;4 expression (in words, summary of analogues)” value was “induce expression of the Pht1;4 gene”. Besides, the Antho in the assay with wild type seedlings was found to be 247.
With `CC1(C)CC(=O)C(=CNc2ccc(F)c(Cl)c2)C(=O)C1` [#3], the “Root Growth” value in the assay with A. thaliana is listed as 41 % of control. In the assay with wild type seedlings, this molecule displayed an Antho of 806.
